Tested on: mice
Assay: acute toxicity (LD50), intraperitoneal administration in mice
Type: in vivo
Details: mice (male, 20 g)
Description: Representative LD50 values, for example, for N^2 -(6,7-dimethoxy-2-naphthylsulfonyl)-L-arginyl-N-butylalanine and N^2 -(4,6-dimethoxy-2-naphthylsulfonyl)-L-arginyl-N-cyclohexylmethylalanine are above 1,500 milligrams per kilogram each.

Row | SMILES | acute toxicity values (LD50)
1 | COc1ccc2cc(S(=O)(=O)N[C@@H](CCCNC(=N)N)C(=O)N(CC3CCCCC3)[C@@H](C)C(=O)O)cc(OC)c2c1 [compound 12, N^2-(4,6-dimethoxy-2-naphthylsulfonyl)-L-arginyl-N-cyclohexylmethylalanine] | above 1,500 milligrams per kilogram
2 | CCCCN(C(=O)[C@H](CCCNC(=N)N)NS(=O)(=O)c1ccc2cc(OC)c(OC)cc2c1)[C@@H](C)C(=O)O [compound 2, N^2-(6,7-dimethoxy-2-naphthylsulfonyl)-L-arginyl-N-butylalanine] | above 1,500 milligrams per kilogram

Target: T1, thrombin (Bos taurus, UniProt P00735)
T1 construct: purchased Mochida Pharmaceutical Co., Ltd
Assay: fibrinogen coagulation time (thrombin added to bovine fibrinogen solution)
Type: biochemical
Details: thrombin 5 units/ml, borate saline buffer pH 7.4, 25° C, normal coagulation time 50-55 seconds prolonged to 100-110 seconds
Experimental: The measurement of the fibrinogen coagulation time was conducted as follows:
Immediately after mixing, the reaction mixture was transferred from the ice bath to a bath maintained at 25° C. Coagulation times were taken as the period between the time of transference to the 25° C bath and the time of the first appearance of fibrin threads.
The term "concentration required to prolong the coagulation time by a factor of two" is the concentration of an active ingredient required to prolong the normal coagulation time 50-55 seconds to 100-110 seconds.

Row | SMILES | Concentration required to prolong the coagulation time by a factor of two
3 | COCCN(C(=O)[C@H](CCCNC(=N)N)NS(=O)(=O)c1ccc2cc(OC)c(OC)cc2c1)[C@@H](C)C(=O)O [compound 15, N^2-(6,7-dimethoxy-2-naphthylsulfonyl)-L-arginyl-N-(2-methoxyethyl)alanine] | 5 µM
4 | COc1ccc2cc(S(=O)(=O)N[C@@H](CCCNC(=N)N)C(=O)N(CC3CCCCC3)[C@@H](C)C(=O)O)cc(OC)c2c1 [compound 12, N^2-(4,6-dimethoxy-2-naphthylsulfonyl)-L-arginyl-N-cyclohexylmethylalanine] | 4.5 µM
5 | COc1cc2ccc(S(=O)(=O)N[C@@H](CCCNC(=N)N)C(=O)N(CCc3ccccc3)[C@@H](C)C(=O)O)cc2cc1OC [compound 8, N^2-(6,7-dimethoxy-2-naphthylsulfonyl)-L-arginyl-N-phenethylalanine] | 1.5 µM
6 | COc1cc2ccc(S(=O)(=O)N[C@@H](CCCNC(=N)N)C(=O)N(C)[C@@H](Cc3ccccc3)C(=O)O)cc2cc1OC [compound 18, N^2-(6,7-dimethoxy-2-naphthylsulfonyl)-L-arginyl-N-methylphenylalanine] | 2 µM
7 | CCC[C@H](NC(=O)[C@H](CCCNC(=N)N)NS(=O)(=O)c1ccc2cc(OC)c(OC)cc2c1)C(=O)O [compound 21, N^2-(6,7-dimethoxy-2-naphthylsulfonyl)-L-arginylnorvaline] | 15 µM
8 | COc1cc2ccc(S(=O)(=O)N[C@@H](CCCNC(=N)N)C(=O)N(Cc3ccccc3)[C@@H](C)C(=O)O)cc2cc1OC [compound 6, N^2-(6,7-dimethoxy-2-naphthylsulfonyl)-L-arginyl-N-benzylalanine] | 2.5 µM
9 | COc1ccc2ccc(S(=O)(=O)N[C@@H](CCCNC(=N)N)C(=O)N(C)[C@@H](Cc3ccccc3)C(=O)O)cc2c1 [compound 20, N^2-(7-methoxy-2-naphthylsulfonyl)-L-arginyl-N-methyl-phenylalanine] | 2.5 µM
10 | CCCCCN(C(=O)[C@H](CCCNC(=N)N)NS(=O)(=O)c1ccc2cc(OC)c(OC)cc2c1)[C@@H](C)C(=O)O [compound 4, N^2-(6,7-dimethoxy-2-naphthylsulfonyl)-L-arginyl-N-pentylalanine] | 2.0 µM
